The Kd is a measure of binding affinity in units of concentration. The low end stands for higher affinity, the high end for lower affinity.

One molecule from BindingDB's records for patent US11802108 (The University Court of The University of Edinburgh, 2023) can be followed below.

The target in the assay is Peptidyl-prolyl cis-trans isomerase A (Homo sapiens, UniProt P62937). As to the kind of experiment: Isothermal Titration Calorimetry (ITC). Here is the method:
The buffer used in the titrations of the compounds belonging to the ester series was 50 mM phosphate buffer, pH 6.5 and the concentration of DMSO was 2% v/v for all the compounds, unless otherwise stated in Table 51. […] Control experiments were performed, where each compound was titrated into buffer and when small amount of heat was detected due to heat of dilution, it was subtracted when processing the data using a linear fit method. In all cases the first injection was omitted from the data processing. All data were analysed using the MicroCal PEAQ-ITC Analysis software.

Chain of Peptidyl-prolyl cis-trans isomerase A (P62937 whole entry): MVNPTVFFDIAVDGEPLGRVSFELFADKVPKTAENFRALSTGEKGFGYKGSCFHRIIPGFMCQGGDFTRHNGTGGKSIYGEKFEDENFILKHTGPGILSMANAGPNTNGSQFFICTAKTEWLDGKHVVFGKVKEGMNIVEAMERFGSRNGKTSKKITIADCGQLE

`CCOC(=O)CNC(=O)N(Cc1ccc(N)cc1)Cc1cn(CC(=O)OCC)nn1` [US11802108, Compound 20]: the Kd was over 600 µM.
